US8791102B2, “Acetanilide sphingosine-1-phosphate receptor antagonists” (Exelixis, Inc., priority 2008, dated 2014)

Biological target: T1, human S1P1 receptors (Homo sapiens, UniProt P21453)
T1 construct: host or cells: HEK293
Assay: S1P1R antagonist assay (fluorescent membrane potential dye, cAMP readout)
Type: cell-based
Details: HEK293 cells expressing human S1P1 receptors and CNG channel; 500 nM NECA; S1P1R agonist 10 nM; 90 minutes; read-out: EC50 or IC50 value
Text: The S1P1R antagonist assay is a fluorescent membrane potential dye measurement assay, indicative of intracellular cAMP changes due to G protein-coupled receptor activation. HEK293 cells engineered to express human S1P1 receptors and a cyclic nucleotide-gated (CNG) channel are obtained from BD Biosciences, 80300-250. The CNG channels are activated by elevated levels of cAMP, resulting in ion flux and cell membrane depolarization. Membrane depolarization is detected with a membrane potential dye. Stimulation of the cells with 5′-(N-ethylcarboxamido)adenosine (NECA), an A2b receptor agonist (Sigma, E2387), elicits an A2bR-dependent increase in cAMP.
Subsequent exposure of the cells to a S1P1R agonist suppresses the NECA induced increase in cAMP through S1P1R-specific signaling by inhibiting adenylyl cyclase and the formation of cAMP from ATP. The degree to which a test compound overcomes the S1P1R agonist suppression of the NECA induced increase in cAMP is a measure of S1P1R antagonist activity. Antagonist activity is quantified as the IC50 (i.e., the concentration needed to elicited one-half of the maximum response of the test compound) and/or as the EC50 (i.e., the concentration needed to elicited one-half of the NECA induced stimulation).
Day 1: Freshly thawed cells were plated into 384-well plates (Corning, 3683) at a density of 14,000 cells/well in 20 μL, complete media and incubated for 16 hours at 37° C., 5% CO2 and 99% relative humidity. Complete media included Dulbecco's modified Eagle's medium (Invitrogen, 11965-092), 10% Fetal bovine serum (Hyclone, SH30071.03), 250 μg/mL geneticin (Invitrogen, 10131-027), and 1 μg/mL Puromycin (Fluka, 82595).
Day 2: Membrane potential dye (20 μL, BD Biosciences, 341833) was added to each well and the plates were incubated for 2.5 hours at ambient temperature. Test compounds (20 μL) were added to the wells at various concentrations (≦10 μM, 1 to 3 dilutions) in a NECA base solution and incubated for 90 minutes in the presence of the S1P1R agonist {4-((4-phenyl-5-trifluoromethyl-2-thienyl)methoxy)benzyl}-3-azetidinecarboxylic acid (10 nM). The NECA-base solution contained Dulbecco's phosphate-buffered saline (Invitrogen, 14190-136), 2.5% DMSO (Fluka, 41648), 25 μM Ro 20-1724 (Sigma, B8279), and 500 nM NECA).
Assay plates were read with a PerkinElmer EnVision reader (Excitation 350 nm, Emission 590 nm) at time T=0 minutes, before compound addition and at time T=90 minutes. The signal was calculated as the ratio T90/T0. Data was analyzed in ActivityBase XE and graphs showing log of compound concentration (X-axis) vs. % activity (Y-axis) were generated for IC50 determinations. Percent activity was calculated with the following formula: (Signal−Agonist Control Signal)/(NECA Control Signal−Agonist Control Signal)×100.

T1 sequence (P21453 whole entry): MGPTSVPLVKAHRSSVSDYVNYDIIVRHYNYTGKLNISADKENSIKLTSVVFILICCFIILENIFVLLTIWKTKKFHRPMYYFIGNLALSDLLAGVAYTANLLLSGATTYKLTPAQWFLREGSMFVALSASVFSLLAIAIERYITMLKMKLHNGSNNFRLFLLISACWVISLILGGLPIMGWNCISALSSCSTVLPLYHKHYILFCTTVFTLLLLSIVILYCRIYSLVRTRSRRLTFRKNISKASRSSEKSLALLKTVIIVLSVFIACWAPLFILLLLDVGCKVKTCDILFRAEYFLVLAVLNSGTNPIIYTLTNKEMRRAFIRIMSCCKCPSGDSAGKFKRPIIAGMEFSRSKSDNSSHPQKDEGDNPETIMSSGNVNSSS

Compound	IC50
O=C(Cc1cnc[nH]1)N[C@@H](COCc1ccccc1)C(=O)Nc1ccc(OC2CCCCC2)cc1 [Compound 208, (S)-2-(2-(1H-imidazol-5-yl)acetamido)-3-(benzyloxy)-N-(4-(cyclohexyloxy)phenyl)propanamide]	300 to 1000 nM
O=C(Nc1ccc(Oc2ccc(F)cc2)cc1)[C@@H]1C[C@@H](Cc2ccc(F)cc2)CN1C(=O)Cn1cncn1 [Compound 141, (2S,4R)-1-(2-(1H-1,2,4-triazol-1-yl)acetyl)-4-(4-fluorobenzyl)-N-(4-(4-fluorophenoxy)phenyl)pyrrolidine-2-carboxamide]	≤ 300 nM
O=C(Nc1ccc(Oc2ccc(F)cc2)cc1)[C@@H]1C[C@@H](Cc2ccccc2F)CN1C(=O)Cn1ccnn1 [Compound 264, (2S,4R)-1-(2-(1H-1,2,3-triazol-1-yl)acetyl)-4-(2-fluorobenzyl)-N-(4-(4-fluorophenoxy)phenyl)pyrrolidine-2-carboxamide]	≤ 300 nM
CC(=O)c1ccc(C(=O)NC(COCc2ccccc2)C(=O)Nc2ccc(Oc3ccccc3)cc2)cc1 (stereo not drawn) [Compound 396, 4-acetyl-N-(2-oxo-1-{[(phenylmethyl)oxy]methyl}-2-{[4-(phenyloxy)phenyl]amino}ethyl)benzamide]	> 1000 nM
O=C(CN1CCN(C(=O)c2ccco2)CC1)N[C@@H](COCc1ccccc1)C(=O)Nc1ccc(Oc2ccc(F)cc2)cc1 [Compound 223, (S)-3-(benzyloxy)-N-(4-(4-fluorophenoxy)phenyl)-2-(2-(4-(furan-2-carbonyl)piperazin-1-yl)acetamido)propanamide]	300 to 1000 nM
O=C(CC(F)(F)F)NC(COCc1ccccc1)C(=O)Nc1ccc(Oc2ccccc2)cc1 (stereo not drawn) [Compound 22, N-(3-(benzyloxy)-1-oxo-1-(4-phenoxyphenylamino)propan-2-yl)-3,3,3-trifluoropropanamide]	300 to 1000 nM
O=C(Cn1cncn1)N[C@@H](COCc1ccccc1OC(F)(F)F)C(=O)Nc1ccc(Oc2ccc(F)cc2)cc1 [Compound 139, (S)-2-(2-(1H-1,2,4-triazol-1-yl)acetamido)-N-(4-(4-fluorophenoxy)phenyl)-3-(2-(trifluoromethoxy)benzyloxy)propanamide]	≤ 300 nM
O=C(Nc1ccc(Oc2ccc(F)cc2)cc1)[C@@H]1C[C@@H](Cc2c(F)cc(F)cc2F)CN1C(=O)Cn1ccnn1 [Compound 170, (2S,4R)-1-(2-(1H-1,2,3-triazol-1-yl)acetyl)-N-(4-(4-fluorophenoxy)phenyl)-4-(2,4,6-trifluorobenzyl)pyrrolidine-2-carboxamide]	≤ 300 nM
Cc1cc(F)ccc1C[C@@H]1C[C@@H](C(=O)Nc2ccc(Oc3ccc(F)cc3)cc2)N(C(=O)Cn2ccnn2)C1 [Compound 6, (2S,4R)-1-(2-(1H-1,2,3-triazol-1-yl)acetyl)-4-(4-fluoro-2-methylbenzyl)-N-(4-(4-fluorophenoxy)phenyl)pyrrolidine-2-carboxamide]	≤ 300 nM
O=C(Nc1ccc(Oc2ccc(F)cc2)cc1)[C@@H]1C[C@@H](Cc2ccc(F)cc2Cl)CN1C(=O)Cn1ccnn1 [Compound 2, (2S,4R)-1-(2-(1H-1,2,3-triazol-1-yl)acetyl)-4-(2-chloro-4-fluorobenzyl)-N-(4-(4-fluorophenoxy)phenyl)pyrrolidine-2-carboxamide]	≤ 300 nM
O=C(NC(COCc1ccccc1)C(=O)Nc1ccc(Oc2ccccc2)cc1)C1CC1 (stereo not drawn) [Compound 277, N-(2-oxo-1-{[(phenylmethyl)oxy]methyl}-2-{[4-(phenyloxy)phenyl]amino}ethyl)cyclopropylamide]	≤ 300 nM
Cc1ccccc1C[C@@H]1C[C@@H](C(=O)Nc2ccc(Oc3ccc(F)cc3)cc2)N(C(=O)Cn2cncn2)C1 [Compound 55, (2S,4R)-1-(2-(1H-1,2,4-triazol-1-yl)acetyl)-N-(4-(4-fluorophenoxy)phenyl)-4-(2-methylbenzyl)pyrrolidine-2-carboxamide]	≤ 300 nM

Other lines, results leading:

IC50	Compound
> 1000 nM	O=C(NC(COCc1ccccc1)C(=O)Nc1ccc(Oc2ccccc2)cc1)c1cccc(Cl)c1F (stereo not drawn) [Compound 299, 3-chloro-2-fluoro-N-(2-oxo-1-{[(phenylmethyl)oxy]methyl}-2-{[4-(phenyloxy)phenyl]amino}ethyl)benzamide]
> 1000 nM	O=C(Cc1cccc(OC(F)(F)F)c1)N[C@@H](COCc1ccccc1)C(=O)Nc1ccc(Oc2ccc(F)cc2)cc1 [Compound 102, (S)-3-(benzyloxy)-N-(4-(4-fluorophenoxy)phenyl)-2-(2-(3-(trifluoromethoxy)phenyl)acetamido)propanamide]
> 1000 nM	COc1ccc(Br)c(C(=O)NC(COCc2ccccc2)C(=O)Nc2ccc(Oc3ccccc3)cc2)c1 (stereo not drawn) [Compound 272, 2-bromo-5-(methyloxy)-N-(2-oxo-1-{[(phenylmethyl)oxy]methyl}-2-{[4-(phenyloxy)phenyl]amino}ethyl)benzamide]
> 1000 nM	O=C(NC(COCc1ccccc1)C(=O)Nc1ccc(Oc2ccccc2)cc1)c1cc(F)ccc1Br (stereo not drawn) [Compound 21, N-(3-(benzyloxy)-1-oxo-1-(4-phenoxyphenylamino)propan-2-yl)-2-bromo-5-fluorobenzamide]
≤ 300 nM	Cc1cn(CC(=O)N[C@@H](COCc2ccccc2)C(=O)Nc2ccc(Oc3ccc(F)cc3)cc2)nn1 [Compound 153, (S)-3-(benzyloxy)-N-(4-(4-fluorophenoxy)phenyl)-2-(2-(4-methyl-1H-1,2,3-triazol-1-yl)acetamido)propanamide]
300 to 1000 nM	COCCN1CCN(CC(=O)N[C@@H](COCc2ccccc2)C(=O)Nc2ccc(Oc3ccc(F)cc3)cc2)CC1 [Compound 241, (S)-3-(benzyloxy)-N-(4-(4-fluorophenoxy)phenyl)-2-(2-(4-(2-methoxyethyl)piperazin-1-yl)acetamido)propanamide]
≤ 300 nM	O=C(Cc1cnccn1)N[C@@H](COCc1ccccc1)C(=O)Nc1ccc(Oc2ccc(F)cc2)cc1 [Compound 159, (S)-3-(benzyloxy)-N-(4-(4-fluorophenoxy)phenyl)-2-(2-(pyrazin-2-yl)acetamido)propanamide]
≤ 300 nM	O=C(Cc1cnc[nH]1)N[C@@H](COCc1ccccc1)C(=O)Nc1ccc(Oc2ccc(Cl)cc2)cc1 [Compound 145, (S)-2-(2-(1H-imidazol-5-yl)acetamido)-3-benzyloxy-N-(4-(4-chlorophenoxy)phenyl)propanamide]
> 1000 nM	COc1ccc(CCC(=O)N[C@@H](COCc2ccccc2)C(=O)Nc2ccc(Oc3ccc(F)cc3)cc2)cc1Cl [Compound 81, (S)-3-(benzyloxy)-2-(3-(3-chloro-4-methoxyphenyl)propanamido)-N-(4-(4-fluorophenoxy)phenyl)propanamide]
300 to 1000 nM	CC(=O)c1ccc(N2CCN(CC(=O)N[C@@H](COCc3ccccc3)C(=O)Nc3ccc(Oc4ccc(F)cc4)cc3)CC2)cc1 [Compound 229, (S)-2-(2-(4-(4-acetylphenyl)piperazin-1-yl)acetamido)-3-(benzyloxy)-N-(4-(4-fluorophenoxy)phenyl)propanamide]
≤ 300 nM	COc1ccc(Oc2ccc(NC(=O)[C@H](COCc3ccccc3)NC(=O)Cc3c[nH]cn3)cc2)cc1 [Compound 202, (S)-2-(2-(1H-imidazol-4-yl)acetamido)-3-(benzyloxy)-N-(4-(4-methoxyphenoxy)phenyl)propanamide]
> 1000 nM	COc1ccc2[nH]c(C)c(CC(=O)NC(COCc3ccccc3)C(=O)Nc3ccc(Oc4ccccc4)cc3)c2c1 (stereo not drawn) [Compound 352, N-(2-oxo-1-{[(phenylmethyl)oxy]methyl}-2-{[4-(phenyloxy)phenyl]amino}ethyl)-2-(5-methoxy-2-methyl-1H-indol-3-yl)acetamide]
